Laboratory results as given in PubChem BioAssay AID330 (DTP/NCI, 2004).
Values joined by “and” are separate entries in the source; they are usually repeats but may differ in a detail not shown here. Equal entries are not always repeated. Toxic doses and inconclusive results are not listed.

Test system: P388 leukemia ip, CD2F1 mice, survival T/C
Test: NCI In Vivo Anticancer Drug Screen. Data for tumor model P388 Leukemia (intraperitoneal) in CD2F1 (CDF1) mice
Conditions: endpoint: median survival time, higher = longer survival
Method in brief: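 Mice carrying the transplanted tumor received test compound or vehicle. Survival was recorded in each group, and the value is the treated-group measurement divided by that of the vehicle-treated control group.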

[1] = dose: 25.0 mg/kg/injection, schedule: Q01DX001 (ip), vehicle: saline with Tween-80
[2] = dose: 50.0 mg/kg/injection, schedule: Q01DX009 (ip), vehicle: Klucel (hydroxypropylcellulose) (HPC)
[3] = dose: 100.0 mg/kg/injection, schedule: Q01DX009 (ip), vehicle: Klucel (hydroxypropylcellulose) (HPC)
[4] = dose: 200.0 mg/kg/injection, schedule: Q01DX009 (ip), vehicle: Klucel (hydroxypropylcellulose) (HPC)
[5] = dose: 100.0 mg/kg/injection, schedule: Q04DX003 (ip), vehicle: Klucel (hydroxypropylcellulose) (HPC)
[6] = dose: 200.0 mg/kg/injection, schedule: Q04DX003 (ip), vehicle: Klucel (hydroxypropylcellulose) (HPC)
[7] = dose: 12.5 mg/kg/injection, schedule: Q01DX009 (ip), vehicle: saline
[8] = dose: 25.0 mg/kg/injection, schedule: Q01DX009 (ip), vehicle: saline
[9] = dose: 50.0 mg/kg/injection, schedule: Q01DX009 (ip), vehicle: saline
[10] = dose: 60.0 mg/kg/injection, schedule: Q01DX005 (ip), vehicle: Klucel (hydroxypropylcellulose) (HPC)
[11] = dose: 12.5 mg/kg/injection, schedule: Q01DX005 (ip), vehicle: Klucel (hydroxypropylcellulose) (HPC)
[12] = dose: 25.0 mg/kg/injection, schedule: Q01DX005 (ip), vehicle: Klucel (hydroxypropylcellulose) (HPC)
[13] = dose: 50.0 mg/kg/injection, schedule: Q01DX005 (ip), vehicle: Klucel (hydroxypropylcellulose) (HPC)
[14] = dose: 100.0 mg/kg/injection, schedule: Q01DX005 (ip), vehicle: Klucel (hydroxypropylcellulose) (HPC)
[15] = dose: 200.0 mg/kg/injection, schedule: Q01DX005 (ip), vehicle: Klucel (hydroxypropylcellulose) (HPC)
[16] = dose: 100.0 mg/kg/injection, schedule: Q04DX003 (ip), vehicle: saline with Tween-80
[17] = dose: 200.0 mg/kg/injection, schedule: Q04DX003 (ip), vehicle: saline with Tween-80
[18] = dose: 100.0 mg/kg/injection, schedule: Q01DX009 (ip), vehicle: saline
[19] = dose: 200.0 mg/kg/injection, schedule: Q01DX009 (ip), vehicle: saline
[20] = dose: 60.0 mg/kg/injection, schedule: Q01DX005 (ip), vehicle: saline with Tween-80
[21] = dose: 120.0 mg/kg/injection, schedule: Q01DX005 (ip), vehicle: saline with Tween-80
[22] = dose: 240.0 mg/kg/injection, schedule: Q01DX005 (ip), vehicle: saline with Tween-80

COP(=O)(O)OC.[Ti]
T/C [1]: 100 % of control
T/C (dose: 50.0 mg/kg/injection, schedule: Q01DX001 (ip), vehicle: saline with Tween-80): 100 % of control
T/C (dose: 100.0 mg/kg/injection, schedule: Q01DX001 (ip), vehicle: saline with Tween-80): 96 % of control

CSc1nc(N)c(C(=O)N(c2ccccc2)c2ccccc2)s1
T/C [2]: 100 % of control
T/C [3]: 108 % of control
T/C [4]: 98 % of control

Cc1cc(=O)oc2c3c4c(cc12)CCCN4CCC3
T/C [5]: 111 % of control
T/C [6]: 109 % of control

NC(=O)Cc1nn[nH]n1
T/C [5]: 106 % of control
T/C [6]: 103 % of control
T/C (dose: 400.0 mg/kg/injection, schedule: Q04DX003 (ip), vehicle: Klucel (hydroxypropylcellulose) (HPC)): 107 % of control

O=C1C2C3C=CC(C2C(=O)N1Cc1ccccc1)C1C2C(=O)N(Cc4ccccc4)C(=O)C2C31 (centres undefined)
T/C (dose: 12.5 mg/kg/injection, schedule: Q01DX001 (ip), vehicle: saline with Tween-80): 101 % of control
T/C [1]: 90 % of control

CC(CCCSC(=N)N)SC(=N)N (centres undefined)
T/C [7]: 105 % of control
T/C [8]: 98 % of control
T/C [9]: 104 % of control

O=c1[nH]c2cc(Cl)ccc2nc1/C=C(\O)c1cccc([N+](=O)[O-])c1
T/C [10]: 102 % of control
T/C (dose: 120.0 mg/kg/injection, schedule: Q01DX005 (ip), vehicle: Klucel (hydroxypropylcellulose) (HPC)): 97 % of control
T/C (dose: 240.0 mg/kg/injection, schedule: Q01DX005 (ip), vehicle: Klucel (hydroxypropylcellulose) (HPC)): 101 % of control

COc1cc2c(cc1C1COc3cc4occc4cc3C1=O)OCO2 (centres undefined)
T/C [11]: 97 % of control
T/C [12]: 95 % of control
T/C [13]: 92 % of control
T/C [14]: 95 % of control
T/C [15]: 95 % of control

Nc1[nH]c(=S)[nH]c(=O)c1N=Cc1ccc2c(c1)OCO2
T/C [5]: 108 % of control and 113 % of control
T/C [6]: 112 % of control and 114 % of control

O=CNc1ccc(Cl)cc1C(=O)c1ccccc1
T/C [2]: 108 % of control
T/C [3]: 100 % of control
T/C [4]: 95 % of control

CCO/C(C)=N/NC(=O)c1n[nH]c2ccccc12
T/C (dose: 50.0 mg/kg/injection, schedule: Q01DX005 (ip), vehicle: saline with Tween-80): 92 % of control
T/C (dose: 100.0 mg/kg/injection, schedule: Q01DX005 (ip), vehicle: saline with Tween-80): 91 % of control
T/C (dose: 200.0 mg/kg/injection, schedule: Q01DX005 (ip), vehicle: saline with Tween-80): 90 % of control

CN(C)N1Cc2ccccc2NC1=O
T/C [13]: 102 % of control
T/C [14]: 96 % of control
T/C [15]: 110 % of control

C[n+]1c(SCC(=O)O)sc2ccccc21
T/C [7]: 99 % of control
T/C [8]: 104 % of control
T/C [9]: 108 % of control and 122 % of control

CC1=C2C(=CC(C)(CO)C2O)C(O)C(C)(O)C12CC2 (centres undefined)
T/C (dose: 0.78 mg/kg/injection, schedule: Q01DX009 (ip), vehicle: water): 100 % of control
T/C (dose: 1.56 mg/kg/injection, schedule: Q01DX009 (ip), vehicle: water): 114 % of control
T/C (dose: 3.13 mg/kg/injection, schedule: Q01DX009 (ip), vehicle: water): 105 % of control
T/C (dose: 6.25 mg/kg/injection, schedule: Q01DX009 (ip), vehicle: water): 112 % of control
T/C (dose: 12.5 mg/kg/injection, schedule: Q01DX009 (ip), vehicle: water): 118 % of control

C/C(=C/c1cc2c(cc1Br)OCO2)[N+](=O)[O-]
T/C [16]: 108 % of control
T/C [17]: 118 % of control

CNS(=O)Nc1ccnc(=O)[nH]1 (centres undefined)
T/C (dose: 50.0 mg/kg/injection, schedule: Q04DX002 (ip), vehicle: Klucel (hydroxypropylcellulose) (HPC)): 99 % of control
T/C (dose: 100.0 mg/kg/injection, schedule: Q04DX002 (ip), vehicle: Klucel (hydroxypropylcellulose) (HPC)): 100 % of control
T/C (dose: 200.0 mg/kg/injection, schedule: Q04DX002 (ip), vehicle: Klucel (hydroxypropylcellulose) (HPC)): 106 % of control
T/C (dose: 400.0 mg/kg/injection, schedule: Q04DX002 (ip), vehicle: Klucel (hydroxypropylcellulose) (HPC)): 100 % of control

Cc1cc(=O)[nH]c2ccc3ccccc3c12
T/C [11]: 91 % of control
T/C [12]: 91 % of control
T/C [13]: 86 % of control

C=C(CCC(C(=O)O)C1C(O)CC2(C)C3=C(CCC12C)C1(C)CCC(OC(C)=O)C(C)(C)C1CC3)C(C)C (centres undefined)
T/C (dose: 12.5 mg/kg/injection, schedule: Q01DX009 (ip), vehicle: saline with Tween-80): 100 % of control
T/C (dose: 25.0 mg/kg/injection, schedule: Q01DX009 (ip), vehicle: saline with Tween-80): 96 % of control
T/C (dose: 50.0 mg/kg/injection, schedule: Q01DX009 (ip), vehicle: saline with Tween-80): 98 % of control

COc1nc(C(Cl)(Cl)Cl)c(Cl)c(OC)c1Cl
T/C (dose: 17.8 mg/kg/injection, schedule: Q01DX005 (iv), vehicle: other): 108 % of control
T/C [12]: 114 % of control and 115 % of control
T/C (dose: 26.7 mg/kg/injection, schedule: Q01DX005 (ip), vehicle: other): 111 % of control and 121 % of control
T/C (dose: 26.7 mg/kg/injection, schedule: Q01DX005 (iv), vehicle: other): 109 % of control
T/C (dose: 40.0 mg/kg/injection, schedule: Q01DX005 (ip), vehicle: Klucel (hydroxypropylcellulose) (HPC)): 100 % of control and 102 % of control
T/C [10]: 105 % of control and 107 % of control
T/C (dose: 60.0 mg/kg/injection, schedule: Q01DX005 (iv), vehicle: other): 107 % of control
T/C (dose: 90.0 mg/kg/injection, schedule: Q01DX005 (ip), vehicle: other): 171 % of control
T/C (dose: 134.0 mg/kg/injection, schedule: Q01DX005 (ip), vehicle: Klucel (hydroxypropylcellulose) (HPC)): 150 % of control
T/C (dose: 135.0 mg/kg/injection, schedule: Q01DX005 (ip), vehicle: Klucel (hydroxypropylcellulose) (HPC)): 106 % of control
T/C (dose: 135.0 mg/kg/injection, schedule: Q01DX005 (ip), vehicle: other): 196 % of control and 207 % of control
T/C (dose: 202.3 mg/kg/injection, schedule: Q01DX005 (ip), vehicle: Klucel (hydroxypropylcellulose) (HPC)): 105 % of control
T/C (dose: 303.3 mg/kg/injection, schedule: Q01DX005 (ip), vehicle: Klucel (hydroxypropylcellulose) (HPC)): 168 % of control

O=c1[nH]cccc1O
T/C (dose: 16.0 mg/kg/injection, schedule: Q01DX009 (ip), vehicle: saline with Tween-80): 115 % of control
T/C (dose: 32.0 mg/kg/injection, schedule: Q01DX009 (ip), vehicle: saline with Tween-80): 122 % of control
T/C [2]: 109 % of control and 113 % of control
T/C [9]: 105 % of control and 110 % of control
T/C (dose: 64.0 mg/kg/injection, schedule: Q01DX009 (ip), vehicle: saline with Tween-80): 112 % of control
T/C [18]: 100 % of control and 111 % of control
T/C [19]: 112 % of control and 115 % of control
T/C (dose: 400.0 mg/kg/injection, schedule: Q01DX009 (ip), vehicle: Klucel (hydroxypropylcellulose) (HPC)): 98 % of control
T/C (dose: 512.0 mg/kg/injection, schedule: Q01DX009 (ip), vehicle: saline with Tween-80): 153 % of control

Cc1cc(O[Si](C)(C)C)nc(O[Si](C)(C)C)n1
T/C [20]: 106 % of control
T/C [21]: 110 % of control
T/C [22]: 105 % of control

COC(=O)c1c2c(nc3ccccc13)-c1ccccc1C(C)(C)C2
T/C [13]: 92 % of control
T/C [14]: 95 % of control
T/C [15]: 96 % of control

C#CC[N+]1(C)CCC=C(C(=O)OC)C1 (centres undefined)
T/C [8]: 97 % of control

CCC[N+]1([O-])CCOCC1
T/C [9]: 102 % of control
T/C [18]: 100 % of control
T/C [19]: 94 % of control

CCCOC1NC(=O)Oc2ccccc21 (centres undefined)
T/C [20]: 101 % of control and 104 % of control and 106 % of control
T/C [21]: 104 % of control and 111 % of control and 117 % of control
T/C [22]: 114 % of control and 117 % of control

CC(C)(C)SC(=O)C[Si](C)(C)C
T/C (dose: 50.0 mg/kg/injection, schedule: Q04DX003 (ip), vehicle: saline with Tween-80): 103 % of control and 105 % of control
T/C [16]: 107 % of control and 94 % of control
T/C [17]: 111 % of control and 118 % of control
T/C (dose: 400.0 mg/kg/injection, schedule: Q04DX003 (ip), vehicle: saline with Tween-80): 110 % of control
